Reference: patent US12291513B2, “Pyridinium derivatives made by hydrothermal synthesis for use as anolytes in electrochemical cells” (Wisconsin Alumni Research Foundation, priority 2021, dated 2025)

Assays:
Assay type in all cases: physicochemical
[1] = Membrane permeability in H-cell; conditions: Selemion DSV membrane
Protocol: 0.33 M Dex-Vi in pure water was separated by an anion-exchange membrane (DSV) from 1 M NaCl in an H-cell. […] The cell was agitated on a shaker to partially simulate flow dynamics. Aliquots of the receiving end (1 M NaCl side) were taken every few days, and the removed volume was replaced with 1 M NaCl. The concentration of Dex-Vi in the aliquot was determined by measuring the absorbance at 285 nm using a UV-Vis spectrophotometer. The concentration as a function of time data was then used to calculate the permeability constant of Dex-Vi. (Kwabi, D. G. et al., Joule 2018, 2, 1894-1906)
Permeability was calculated using Eqn. 4 which follows Fick's Law, where P is the permeability in cm^2·s^−1, A is the membrane area in cm^2, t is elapsed time in seconds, Ct is the concentration (mol·cm^−3) of Dex-Vi on the receiving side at time t, C0 is the initial concentration of Dex-Vi on the donating side, Vo is the volume of one side of the H-cell, and l is the membrane thickness in cm.

[2] = Electrochemical impedance spectroscopy (EIS)
Protocol: (§1) CV and EIS experiments were ran using a PalmSens4 potentiostat with the PSTrace software. Electrochemical experiments were performed in 1.0 M NaCl supporting electrolyte using 15 mM of active material at room temperature (18° C.). Formal potentials for the redox couples were estimated by taking the average potential between the cathodic and anodic peak. Diffusional behavior was investigated by varying the scan rate between 10-100 mV·s^−1 for the first electron reduction and 50-200 mV·s^−1 for the second electron reduction, and the diffusion constants of the reduced and oxidized states (D^R and D^O) were determined via the Randles-Sevcik equation assuming ideal reversible behavior (FIG. 12D). Potentiostatic EIS measurements were used for determination of a combined diffusional constant of the reduced and oxidized states (D^EIS) and of the standard electron kinetic rate constant (k^o). These EIS measurements were performed at the formal reduction potential (held for 30 seconds before measurement) in which the concentration of the two redox states at the electrode surface were assumed to be the same and equal to half of the initially prepared redox species concentration.
(§2) A glassy carbon working electrode (CH Instruments, 0.0707 cm^2), a saturated calomel reference electrode (SCE, CH Instruments, +0.241 V vs. SHE), and a platinum wire counter electrode were used for both CV and EIS measurements. The working electrode was polished with 1 μm, 0.3 μm, and 0.05 μm alumina slurry successively. All electrodes were rinsed with deionized water in between measurements.
Potentiostatic EIS measurements were taken at the formal potential in which the reduction and oxidation processes are at equilibrium and the concentrations of the reduced and oxidized states can be assumed equal. This permitted simple calculation of the standard kinetic rate constant (k^o) via Eqn. 2 where R is the ideal gas constant, T is temperature, n is number of electrons, RCT is the charge-transfer resistance, F is Faraday's constant, A is the electrode surface area in cm^2, and C is the concentration of either the oxidized or reduced form at the electrode surface in mole cm^−3 (which is assumed to be half of the initially prepared redox species concentration, C═C^O═C^R=0.5 Cinitial).
A combined diffusion coefficient of the reduced and oxidized state (D^EIS) can also be determined using Eqn. 3, where σ is the Warburg diffusional impedance variable and all other variables have the previously defined meaning.
RCT and σ can be determined by fitting the impedance spectrum to the ideal Randles equivalent circuit for a 3-electrode system where Ru is the uncompensated resistance between the working and reference electrode, RCT is the charge transfer resistance between the working electrode and the redox species, WD is the Warburg diffusional element, and CPE is the constant phase element that represents capacitive behavior of the working electrode.
The raw data was fitted based on this equivalent circuit using the Z-Fitting tool on the PSTrace software and with the Levenberg-Marquardt algorithm across the entire measured frequency range. For the second redox state, D2^EIS were 3.6×10^−6 cm^2·s^−1 and 3.8×10^−6 cm^2·s^−1 and k2^o were 0.13 cm·s^−1 and 0.23 cm·s^−1 for Dex-Vi and BTMAP-Vi, respectively.

[3] = Cyclic voltammetry (formal potentials, Randles-Sevcik diffusion coefficients)
Protocol: as §1, §2
CVs were taken at various scan rates in order to determine the diffusion coefficients via the Randles-Sevcik relation (Eqn. 1) where ip is the peak current in Amps, n is number of electrons transferred, F is Faraday's constant, A is electrode surface area in cm^2, C is the redox species concentration in mole·cm^−3, R is the ideal gas constant, T is temperature, D is the diffusion coefficient, and v is scan rate in V/s. The anodic peak current […] determines the diffusion coefficient of the reduced state (D^R) while the cathodic peak current (ip,a) determines the diffusion coefficient of the oxidized state (D^O). ip=0.4463n^3/2·F^3/2·A·C·R^−1/2·T^−1/2·D^1/2·v^1/2 Eqn. 1

Compound: C[N+](C)(C)CC(O)C[n+]1ccc(-c2cc[n+](CC(O)C[N+](C)(C)C)cc2)cc1 (centres unmarked) [Dex-Vi, bis(3-trimethylammonio-2-hydroxy)propyl viologen tetrachloride]
- permeance [1]: 2.3×10^−11 cm^2·s^−1
- EIS D ([2]; Example 2): 3.516E−06 cm^2/s
- EIS i^0 ([2]; Example 2): 6.57E−04 A
- EIS k^0 ([2]; Example 2): 0.0128 cm/s
- k1^0 ([2]; Table 1): 0.05 cm/s
- combined diffusion coefficient (D1^EIS) ([2]; first reduction): 3.9×10^−6 cm^2·s^−1
- standard rate constant (k1^0) ([2]; first reduction): 0.05 cm/s
- D2^EIS ([2]; second redox state): 3.6×10^−6 cm^2·s^−1
- k2^o ([2]; second redox state): 0.13 cm/s
- first electron formal potential (E1^0) ([3]; 15 mM in 1.0 M NaCl, 18° C.): −0.322 V vs. SHE
- E1^0 ([3]; Table 1): −0.322 V vs. SHE
- E2^0 ([3]; Table 1): −0.699 V vs. SHE
- reduced state diffusion coefficient (D1^R) ([3]; first redox state, 3+ species): 1.9×10^−6 cm^2·s^−1
- oxidized state diffusion coefficient (D1^O) ([3]; first redox state, 4+ species): 2.3×10^−6 cm^2·s^−1
- D2^O ([3]; second redox state): 4.0×10^−6 cm^2·s^−1
- D2^R ([3]; second redox state): 3.1×10^−6 cm^2·s^−1
- second electron formal potential (E2^0) ([3]; vs. SHE, 15 mM in 1.0 M NaCl, 18° C.): −0.699 V
